{"source": "paper PMC10584882", "about": "(Communications Biology, 2023)", "key": {"SARS-CoV-2 [1]": {"test_system": "SARS-CoV-2", "experiment": "Viral loading determination via RT-qPCR in LC-HK2 cells", "assay_type": "cell-based", "conditions": "LC-HK2, RT-qPCR"}, "CatL": {"target": "T1, CatL (Homo sapiens, UniProt P07711)", "T1 construct": "made in house", "T1 sequence (P07711 114-333)": "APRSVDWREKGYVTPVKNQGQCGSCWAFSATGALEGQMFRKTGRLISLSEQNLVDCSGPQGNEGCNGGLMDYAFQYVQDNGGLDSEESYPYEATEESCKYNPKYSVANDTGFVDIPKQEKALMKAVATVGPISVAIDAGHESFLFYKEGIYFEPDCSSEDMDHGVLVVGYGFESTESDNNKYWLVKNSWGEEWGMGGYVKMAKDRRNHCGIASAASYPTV", "experiment": "Cathepsin inhibition test, CatL", "assay_type": "biochemical", "conditions": "for Residual activity (Vi/V0): Fig. S3 panel b, single replicates"}, "SARS-CoV-2 [2]": {"test_system": "SARS-CoV-2", "experiment": "Cytopathic effect inhibition assay in LC-HK2 cells", "assay_type": "cell-based", "conditions": "for CPE inhibition (%): LC-HK2"}, "SARS-CoV-2 [3]": {"test_system": "SARS-CoV-2", "experiment": "Viral loading determination via RT-qPCR in VERO-CCL81 cells", "assay_type": "cell-based", "conditions": "for Viral titer (% control): VERO CCL81, RT-qPCR, experiments 1 and 2"}, "human CatV": {"target": "T2, human CatV (Homo sapiens, UniProt O60911)", "T2 construct": "made in house", "T2 sequence (O60911 114-334)": "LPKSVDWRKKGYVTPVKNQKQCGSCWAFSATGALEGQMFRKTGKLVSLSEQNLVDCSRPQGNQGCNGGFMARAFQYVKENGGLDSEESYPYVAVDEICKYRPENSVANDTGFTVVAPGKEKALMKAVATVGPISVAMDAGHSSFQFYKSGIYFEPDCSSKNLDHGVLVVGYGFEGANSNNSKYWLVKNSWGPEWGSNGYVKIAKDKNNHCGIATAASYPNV", "experiment": "Cathepsin inhibition test, CatV", "assay_type": "biochemical", "conditions": "Fig. S3 panel c, single replicates"}, "[4]": {"conditions": "inhibitor 0.105 nM, 0.000105 µM"}, "[5]": {"conditions": "inhibitor 0.189 nM, 0.000189 µM"}, "[6]": {"conditions": "inhibitor 0.612 nM, 0.000612 µM"}, "[7]": {"conditions": "inhibitor 1.103 nM, 0.001103 µM"}, "[8]": {"conditions": "inhibitor 1.985 nM, 0.001985 µM"}}, "note": "Several values for one entry are separate records, joined by “and”; a condition that tells them apart may be missing. Identical values can stand only once."}
{"smiles": "CCCC[C@H](NC(=O)[C@H](CC(C)C)NC(=O)OCc1ccccc1)C(O)S(=O)(=O)[O-].[Na+]", "note": "(some centres unmarked) [S-Calpeptin]", "values": [{"measurement": "Viral titer (% control)", "setting": "SARS-CoV-2 [1]; 2.5 μM, listed as S-Calpepin", "result": "33.13 % control and 30.16 % control"}, {"measurement": "Viral titer (% control)", "setting": "SARS-CoV-2 [1]; 100 μM", "result": 0, "unit": "% control"}, {"measurement": "Residual activity (Vi/V0)", "setting": "CatL; inhibitor 0.010 nM, 10 pM", "result": "1.426 and 1.05 and 1.025 and 1.009 and 1.011 and 1.078 and 1.028 and 1.031 and 1.036 and 1.201"}, {"measurement": "Residual activity (Vi/V0)", "setting": "CatL; inhibitor 0.018 nM, 18 pM", "result": "1.349 and 1.024 and 1.036 and 0.8728 and 0.9988 and 0.9818 (2×) and 1.042 and 1.062 and 1.149"}, {"measurement": "Residual activity (Vi/V0)", "setting": "CatL; inhibitor 0.032 nM, 32 pM", "result": "1.453 and 0.9142 and 1.1 and 1.088 and 1.079 and 0.9024 and 0.9567 and 1.006 and 0.9803 and 1.2694"}, {"measurement": "Residual activity (Vi/V0)", "setting": "CatL; inhibitor 0.058 nM, 58 pM", "result": "1.377 and 1.0256 and 0.8968 and 0.9231 and 0.8862 and 0.9577 and 1.001 and 1.006 and 1.052 and 1.254"}, {"measurement": "Residual activity (Vi/V0)", "setting": "CatL; [4]", "result": "1.053 and 0.914 and 0.68 and 0.6925 and 0.711 and 0.8569 and 0.909 and 1.0072 and 0.8377 and 1.071"}, {"measurement": "Residual activity (Vi/V0)", "setting": "CatL; [5]", "result": "0.9886 and 0.7158 and 0.5095 and 0.5746 and 0.5088 and 0.7745 and 0.7818 and 0.8193 and 0.7501 and 1.054"}, {"measurement": "Residual activity (Vi/V0)", "setting": "CatL; inhibitor 0.340 nM, 0.00034 µM", "result": "0.5984 and 0.5107 and 0.3117 and 0.3431 and 0.2757 and 0.5388 and 0.5659 and 0.5589 and 0.4129 and 0.6122"}, {"measurement": "Residual activity (Vi/V0)", "setting": "CatL; [6]", "result": "0.6669 and 0.3311 and 0.2683 and 0.3139 and 0.2767 and 0.6359 and 0.6301 and 0.62 and 0.515 and 0.8313"}, {"measurement": "Residual activity (Vi/V0)", "setting": "CatL; [7]", "result": "0.5114 and 0.2133 and 0.2013 and 0.1965 and 0.1624 and 0.4143 and 0.3924 and 0.3311 and 0.3975 and 0.5758"}, {"measurement": "Residual activity (Vi/V0)", "setting": "CatL; [8]", "result": "0.3099 and 0.145 and 0.1192 and 0.1108 and 0.1144 and 0.3088 and 0.318 and 0.3267 and 0.2219 and 0.2968"}, {"measurement": "Ki", "setting": "CatL; mean with standard deviation and 95% confidence interval, pH 5.5, 37 °C", "result": 0.148, "unit": "nM"}, {"measurement": "EC50", "setting": "SARS-CoV-2 [2]; LC-HK2, CellTiter-Glo, 72 h post-infection, read-out: CPE inhibition EC50", "result": 70, "unit": "nM"}, {"measurement": "CPE inhibition (%)", "setting": "SARS-CoV-2 [2]; 0.000000000001 μM (first of two lines so printed, r18)", "result": 0, "unit": "%"}, {"measurement": "CPE inhibition (%)", "setting": "SARS-CoV-2 [2]; 0.000000000001 μM (second line, r19)", "result": 0, "unit": "%"}, {"measurement": "CPE inhibition (%)", "setting": "SARS-CoV-2 [2]; 0.00000000001 μM", "result": 0, "unit": "%"}, {"measurement": "CPE inhibition (%)", "setting": "SARS-CoV-2 [2]; 0.0000000001 μM", "result": 0, "unit": "%"}, {"measurement": "CPE inhibition (%)", "setting": "SARS-CoV-2 [2]; 0.000000001 μM", "result": 0, "unit": "%"}, {"measurement": "CPE inhibition (%)", "setting": "SARS-CoV-2 [2]; 0.00000001 μM, listed as S-Calpepin, 10 fM", "result": "4.03% and 3.04%"}, {"measurement": "CPE inhibition (%)", "setting": "SARS-CoV-2 [2]; 0.0000001 μM, listed as S-Calpepin, 100 fM", "result": "0% and 1.04%"}, {"measurement": "CPE inhibition (%)", "setting": "SARS-CoV-2 [2]; 0.000001 μM, listed as S-Calpepin, 1 pM", "result": "0% and 4.71%"}, {"measurement": "CPE inhibition (%)", "setting": "SARS-CoV-2 [2]; 0.00001 μM, listed as S-Calpepin, 10 pM", "result": "5.52% and 8.92%"}, {"measurement": "CPE inhibition (%)", "setting": "SARS-CoV-2 [2]; 0.0001 μM, listed as S-Calpepin", "result": "7.19% and 6.77%"}, {"measurement": "CPE inhibition (%)", "setting": "SARS-CoV-2 [2]; 0.001 μM, listed as S-Calpepin", "result": "23.15% and 18.35%"}, {"measurement": "CPE inhibition (%)", "setting": "SARS-CoV-2 [2]; 0.01 μM, listed as S-Calpepin", "result": "22.53% and 19.69%"}, {"measurement": "CPE inhibition (%)", "setting": "SARS-CoV-2 [2]; 0.1 μM, listed as S-Calpepin", "result": "56.52% and 41.43%"}, {"measurement": "CPE inhibition (%)", "setting": "SARS-CoV-2 [2]; 1 μM, listed as S-Calpepin", "result": "87.89% and 72.23%"}, {"measurement": "CPE inhibition (%)", "setting": "SARS-CoV-2 [2]; 10 μM, listed as S-Calpepin", "result": "85.17% and 78.3%"}, {"measurement": "Viral titer (% control)", "setting": "SARS-CoV-2 [3]; 0.0781 μM", "result": 100, "unit": "% control"}, {"measurement": "Viral titer (% control)", "setting": "SARS-CoV-2 [3]; 0.1563 μM", "result": 100, "unit": "% control"}, {"measurement": "Viral titer (% control)", "setting": "SARS-CoV-2 [3]; 0.3125 μM", "result": 100, "unit": "% control"}, {"measurement": "Viral titer (% control)", "setting": "SARS-CoV-2 [3]; 0.625 μM, listed as S-Calpepin", "result": "65 % control and 61.77 % control"}, {"measurement": "Viral titer (% control)", "setting": "SARS-CoV-2 [3]; 1.25 μM, listed as S-Calpepin", "result": "24 % control and 43.33 % control"}, {"measurement": "Viral titer (% control)", "setting": "SARS-CoV-2 [3]; 2.5 μM, listed as S-Calpepin", "result": "24.98 % control and 48.08 % control"}, {"measurement": "Viral titer (% control)", "setting": "SARS-CoV-2 [3]; 5 μM", "result": 27.38, "unit": "% control"}, {"measurement": "EC50", "setting": "SARS-CoV-2 [3]; VERO-CCL81, RT-qPCR, 48 h post-infection, read-out: Viral titer EC50", "result": 700, "unit": "nM"}, {"measurement": "Residual activity (Vi/V0)", "setting": "human CatV; inhibitor 0.010 nM, 10 pM", "result": "0.8982 and 0.9438 and 1.016 and 0.9432 and 0.9838 and 0.9734 and 1.009 and 0.9925"}, {"measurement": "Residual activity (Vi/V0)", "setting": "human CatV; inhibitor 0.018 nM, 18 pM", "result": "0.7063 and 0.8048 and 0.9697 and 0.9452 and 0.965 and 0.9273 and 1.044 and 0.9905"}, {"measurement": "Residual activity (Vi/V0)", "setting": "human CatV; inhibitor 0.032 nM, 32 pM", "result": "0.4743 and 0.664 and 0.9379 and 0.8845 and 0.8627 and 0.9319 and 1.237 and 0.91"}, {"measurement": "Residual activity (Vi/V0)", "setting": "human CatV; inhibitor 0.058 nM, 58 pM", "result": "0.01132 and 0.01674 and 0.9458 and 0.6877 and 0.9713 and 0.8348 and 1.1467 and 0.7642"}, {"measurement": "Residual activity (Vi/V0)", "setting": "human CatV; [4]", "result": "0.5008 and 0.5002 and 0.8948 and 0.8318 and 0.8983 and 0.7019 and 1.143 and 0.6207"}, {"measurement": "Residual activity (Vi/V0)", "setting": "human CatV; [5]", "result": "0.2447 and 0.2374 and 0.7712 and 0.7606 and 0.8108 and 0.5224 and 1.02 and 0.4249"}, {"measurement": "Residual activity (Vi/V0)", "setting": "human CatV; inhibitor 0.340 nM, 0.00034 µM", "result": "0.1518 and 0.1386 and 0.6304 and 0.6112 and 0.6332 and 0.3803 and 0.6867 and 0.2117"}, {"measurement": "Residual activity (Vi/V0)", "setting": "human CatV; [6]", "result": "0.103 and 0.1097 and 0.4478 and 0.4871 and 0.5442 and 0.179 and 0.3919 and 0.1269"}, {"measurement": "Residual activity (Vi/V0)", "setting": "human CatV; [7]", "result": "0.05798 and 0.06049 and 0.2946 and 0.2993 and 0.3554 and 0.1895 and 0.2004 and 0.05784"}, {"measurement": "Residual activity (Vi/V0)", "setting": "human CatV; [8]", "result": "0.03342 and 0.03103 and 0.1055 and 0.1184 and 0.07678 and 0.1061 and 0.06687 and 0.038"}, {"measurement": "Residual activity (Vi/V0)", "setting": "human CatV; inhibitor 3.572 nM, 0.003572 µM", "result": "0.01297 and 0.01099 and 0.0386 and 0.03676 and 0.03768 and 0.02078 and 0.03085 and 0.02157"}, {"measurement": "Residual activity (Vi/V0)", "setting": "human CatV; inhibitor 6.430 nM, 0.00643 µM", "result": "0.008943 and 0.006591 and 0.009607 and 0.008666 and 0.01717 and 0.01084 and 0.01202 and 0.007959"}, {"measurement": "Residual activity (Vi/V0)", "setting": "human CatV; inhibitor 11.547 nM, 0.011547 µM", "result": "0.003173 and 0.004275 and 0.001602 and 0.001011"}]}
